This passage reports IC50 and Kd results from US7414071B2, “Methods of treatment with selective EP4 receptor agonists” (Pfizer Inc., priority 2002, dated 2008).

In one assay the target is T1, human EP3 receptor (Homo sapiens, UniProt P43115).
T1 construct: expressed in transfected cells; membranes
T1 sequence (P43115 1-390): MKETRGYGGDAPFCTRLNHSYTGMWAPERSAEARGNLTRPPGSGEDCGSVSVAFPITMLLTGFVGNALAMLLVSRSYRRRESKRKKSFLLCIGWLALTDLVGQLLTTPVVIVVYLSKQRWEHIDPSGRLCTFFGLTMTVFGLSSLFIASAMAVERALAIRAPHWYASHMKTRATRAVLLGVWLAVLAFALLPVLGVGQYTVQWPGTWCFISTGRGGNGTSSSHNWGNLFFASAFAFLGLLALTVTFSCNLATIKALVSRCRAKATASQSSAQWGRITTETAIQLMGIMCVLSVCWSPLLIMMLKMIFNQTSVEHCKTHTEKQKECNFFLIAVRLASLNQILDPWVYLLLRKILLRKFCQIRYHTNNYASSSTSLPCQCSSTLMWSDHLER
In words: Human EP3 receptor binding assay (displacement of 3H-prostaglandin E2 from 293S cell membranes). As to conditions: displacement of 3H-prostaglandin E2, 293S membranes. An excerpt: (§1) The compounds of Formula I, which are useful in the methods of the present invention, bind to the prostaglandin E2 type 4 receptor (EP4 receptor). The full length coding sequence for the human EP1 receptor is made in accordance with the procedure in Funk et al., Journal of Biological Chemistry, 1993, 268, 26767-26772. The full length rat EP2 receptor is made in accordance with the procedure in Nemoto et al., Prostaglandins and other Lipid Mediators, 1997, 54, 713-725. The full length coding sequence for the human EP3 receptor is made in accordance with the procedure in Regan et al., British Journal of Pharmacology, 1994, 112, 377-385. The full length coding sequence for the rat EP4 receptor is made in accordance with the procedure in Sando et al., Biochem. Biophys. Res. Comm. 1994, 200, 1329-1333. These full length receptors are used to prepare 293S cells expressing the human EP1, rat EP2, human EP3 or rat EP4 receptors.
(§2) The full length receptors described above are used to prepare 293S cells expressing the EP1, EP2, EP3, and EP4 receptors. […]
(§3) Membrane Preparation: All operations are performed at 4° C. […] Pelleted membranes are resuspended to 3-10 mg protein per ml, protein concentration being determined of the method of Bradford [Bradford, M., Anal. Biochem. 1976, 72, 248]. […]
For orientation: In a radioligand displacement assay an active substance lowers the binding of a labelled ligand.

The target in another assay is T2, rat EP2 receptor (Rattus norvegicus, UniProt Q62928).
T2 construct: The full length rat EP2 receptor is made in accordance with the procedure in Nemoto et al; expressed in transfected cells; membranes
Nature of the assay: Rat EP2 receptor binding assay (displacement of 3H-prostaglandin E2 from 293S cell membranes). As to conditions: displacement of 3H-prostaglandin E2, 293S membranes.
Source text: as §1, §2, §3

Another assay concerns the target T3, human EP1 receptor (Homo sapiens, UniProt P34995).
T3 construct: expressed in transfected cells; membranes
T3 sequence (P34995 1-402): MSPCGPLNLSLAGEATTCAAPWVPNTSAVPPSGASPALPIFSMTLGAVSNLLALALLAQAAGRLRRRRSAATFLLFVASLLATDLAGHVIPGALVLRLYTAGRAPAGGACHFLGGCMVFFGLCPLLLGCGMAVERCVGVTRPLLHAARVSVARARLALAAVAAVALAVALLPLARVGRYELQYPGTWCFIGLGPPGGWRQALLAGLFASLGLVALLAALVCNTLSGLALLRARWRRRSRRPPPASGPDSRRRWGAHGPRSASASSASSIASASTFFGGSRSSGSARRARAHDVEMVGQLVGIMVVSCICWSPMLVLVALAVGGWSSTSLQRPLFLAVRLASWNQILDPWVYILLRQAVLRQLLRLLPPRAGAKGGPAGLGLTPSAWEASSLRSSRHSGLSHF
Nature of the assay: Human EP1 receptor binding assay (displacement of 3H-prostaglandin E2 from 293S cell membranes). As to conditions: displacement of 3H-prostaglandin E2, 293S membranes.
Source text: as §1, §2, §3

The target of a further assay is T4, rat EP4 receptor (Rattus norvegicus, UniProt P43114).
T4 construct: expressed in transfected cells
Nature of the assay: Whole cell 3H-PGE2 binding with Scatchard analysis in 293S transfectants. As to conditions: cell line selected for compound screening. The protocol: Clonal cell lines expressing the maximal number of receptors are chosen following a whole cell ^3H-PGE2 binding assay using unlabeled PGE2 as a competitor. […] Constitutive expression of the receptor in parental 293-S cells is negligible. A stable cell line containing the rat EP4 receptor is grown in Dulbecco's Mosified Eagle Medium/F12 (DMEM/F12) containing 10% fetal bovine serum and G418 (500 μg/ml) to 80% confluency.

T2 sequence (Q62928 whole entry): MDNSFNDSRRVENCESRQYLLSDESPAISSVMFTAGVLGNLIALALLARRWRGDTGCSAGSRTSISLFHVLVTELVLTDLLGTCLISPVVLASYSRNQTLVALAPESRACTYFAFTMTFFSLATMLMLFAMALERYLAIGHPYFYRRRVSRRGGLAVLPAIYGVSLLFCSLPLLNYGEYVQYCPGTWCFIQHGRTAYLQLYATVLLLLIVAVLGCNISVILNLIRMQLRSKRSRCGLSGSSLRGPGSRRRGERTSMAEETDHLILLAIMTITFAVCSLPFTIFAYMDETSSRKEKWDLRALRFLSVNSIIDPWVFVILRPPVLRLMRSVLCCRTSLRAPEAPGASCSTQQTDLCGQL
T4 sequence (P43114 whole entry): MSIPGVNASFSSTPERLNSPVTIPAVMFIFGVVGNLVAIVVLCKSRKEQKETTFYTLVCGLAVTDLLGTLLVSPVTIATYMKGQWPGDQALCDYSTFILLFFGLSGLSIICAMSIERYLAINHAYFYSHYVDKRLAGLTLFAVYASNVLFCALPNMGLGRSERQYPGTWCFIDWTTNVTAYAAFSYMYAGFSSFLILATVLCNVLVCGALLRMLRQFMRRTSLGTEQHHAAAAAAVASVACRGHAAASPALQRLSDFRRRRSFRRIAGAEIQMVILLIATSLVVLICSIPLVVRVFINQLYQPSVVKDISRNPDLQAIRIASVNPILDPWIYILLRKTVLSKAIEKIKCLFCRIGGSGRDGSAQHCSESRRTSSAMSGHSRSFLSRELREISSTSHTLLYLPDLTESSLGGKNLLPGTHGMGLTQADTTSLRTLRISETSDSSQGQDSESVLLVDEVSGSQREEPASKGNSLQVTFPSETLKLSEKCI

For the molecule `O=C(O)c1ccc(CCCN2C(=O)CC[C@@H]2CC[C@@H](O)Cc2cccc(C(F)(F)F)c2)s1` [Compound 3M], the IC50 on human EP3 receptor was greater than 1000 nM; at rat EP2 receptor, 463 nM; on human EP1 receptor, greater than 1000 nM.
As for `CCCCC[C@H](O)/C=C/[C@H]1[C@H](O)CC(=O)[C@@H]1C/C=C\CCCC(=O)O` [PGE2, Prostaglandin E2], the affinity at rat EP4 receptor, expressed as Kd, was 2.9 nM.

Usually IC50 stands for the midpoint of a concentration-inhibition curve. Higher therefore signals lower potency. As a reminder, the Kd is the free concentration of one partner at which half of the binding sites on the other are occupied at equilibrium, for simple one-to-one binding.
